From article PMC8876231, “Analogues of Natural Chalcones as Efficient Inhibitors of AKR1C3” (Metabolites, 2022)
Where “and” joins values, the source holds several entries; their conditions need not be identical. Identical values can stand only once.

Legend:
Format in all cases: biochemical
Details in all cases: 10 µM compound; mean ± SD
AKR1C1 = molecular target: T1, AKR1C1 (Homo sapiens, UniProt Q04828); experiment: AKR1C1 inhibition assay (progesterone to 20α-hydroxyprogesterone)
T1 construct: Myc (N); expressed in transfected cells; host or cells: HEK293
T1 sequence (Q04828 1-323): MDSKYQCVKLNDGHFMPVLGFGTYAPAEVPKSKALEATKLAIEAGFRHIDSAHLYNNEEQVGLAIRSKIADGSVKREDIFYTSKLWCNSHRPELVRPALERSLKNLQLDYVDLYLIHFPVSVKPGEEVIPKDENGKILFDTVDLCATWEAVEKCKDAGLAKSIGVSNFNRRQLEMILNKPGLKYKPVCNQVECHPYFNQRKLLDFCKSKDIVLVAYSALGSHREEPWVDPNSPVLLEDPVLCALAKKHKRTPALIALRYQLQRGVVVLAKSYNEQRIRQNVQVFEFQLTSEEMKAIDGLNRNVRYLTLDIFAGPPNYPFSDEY
Source text: (§1) For enzymatic assays and inhibitor testing, all enzymes were cloned into bacterial or mammalian expression vectors. AKR1C3 and the human hydroxysteroid dehydrogenases HSD17B1, HSD17B2, HSD17B4 (SDR domain), HSD17B7, and HSD17B10 were cloned into a pGEX vector as described in [71, 72]. The coding sequences for AKR1C1, AKR1C2, and AKR1C4 were cloned by Gateway technology into the pcDNA3-N-MycDest vector according to the manufacturer’s instructions (Life Technologies, Carlsbad, CA, USA). The p11 plasmid coding for HSD17B14 (S205 variant) was a gift from Udo Opperman SGC Oxford, UK. For assays with HSD17B3, HEK293 cells stably expressing HSD17B3 were used. Enzymes were expressed in E. coli BL21 DE3 or E. coli BL21 DE3 Codon Plus RP (Stratagene, San Diego, CA, USA) or in HEK293 cells as described in [71, 72, 73]. Bacterial and cell pellets were stored at −20 °C and −80 °C, respectively, until use.
(§2) Inhibition assays were carried out as described in [71, 74]. […] For a detailed assay setup, see Supplementary Table S6. The incubation at 37 °C was stopped with 0.21 M ascorbic acid in methanol:acetic acid 99:1 (v:v) after the time needed to convert approximately 30% of the substrate in a control assay with 1% DMSO, without inhibitor candidate. Substrates and products were extracted from the reaction mixture by solid-phase extraction using C18 cartridges (Phenomenex, Aschaffenburg, Germany) and separated by RP–HPLC in a Beckman–Coulter HPLC Gold system, using the Luna 5 µm C18(2), 125 × 4.0 mm column (Phenomenex). The mobile phases used were H2O:ACN (57:43 (v:v); for assays of estrone (E1) to oestradiol (E2), E2 to E1, and ∆4-androstene-3,17-dione to testosterone conversion), H2O:ACN (49:51 (v:v); for assays of progesterone to 20α-hydroxyprogesterone conversion), and H2O:MeOH (35:65 (v:v) for assays of dihydrotestosterone (DHT) to 3α-androstanediol conversion) at a flow rate of 1 mL/min. Radioactivity was detected by online scintillation counting by using a radioactivity monitor (LB506D, Berthold Technologies, Bad Wildbad, Germany). Conversion of substrates to products was determined by integration of the peak area of the substrate and product peaks in percent. For calculation of inhibition, the conversion of control assay (assay without inhibitor) was set to 0% inhibition. All assays were run in triplicates, and mean values ± SD are reported.
(§3) Table S6: Activity assay setup […]
(§4) E1: estrone; E2: 17β-estradiol, A: Δ4-androstene-3,17-dione; T: testosterone, P: progesterone, 20αOHP: 20α-hydroxyprogesterone, DHT: dihydrotestosterone, 3α-Adiol: 3α-androstanediol, NaPi: 100 mM Na-phosphate buffer; PI: C0mplete protease inhibitor (Roche);. E.coli - Expression in E.coli BL21 DE3 Codon Plus RP except E.coli BL21 DE3 […]
(§5) application to antiparasitic and natural product synthesis. Eur J Org Chem […]
(§6) Synthesis of Xanthohumol analogues and discovery of potent thioredoxin reductase inhibitor as potential anticancer agent. J Med Chem 2015, 58,

HSD17B3 = molecular target: T2, HSD17B3 (Homo sapiens, UniProt P37058); experiment: HSD17B3 inhibition assay (∆4-androstene-3,17-dione to testosterone, HEK293 stably expressing HSD17B3)
T2 construct: expressed in transfected cells
T2 sequence (P37058 1-310): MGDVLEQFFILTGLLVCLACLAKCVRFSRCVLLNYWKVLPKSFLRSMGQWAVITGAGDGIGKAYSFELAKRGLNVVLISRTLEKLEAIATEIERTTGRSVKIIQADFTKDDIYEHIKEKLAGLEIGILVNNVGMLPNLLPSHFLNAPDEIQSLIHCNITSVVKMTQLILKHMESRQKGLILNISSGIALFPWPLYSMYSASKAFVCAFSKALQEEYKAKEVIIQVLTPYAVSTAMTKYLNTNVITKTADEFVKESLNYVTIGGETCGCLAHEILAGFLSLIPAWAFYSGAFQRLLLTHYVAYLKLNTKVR
Source text: as §1, §2, §3, §4, §5, §6

HSD17B10 = molecular target: T3, HSD17B10 (Homo sapiens, UniProt Q99714); experiment: HSD17B10 inhibition assay (oestradiol to estrone)
T3 construct: GST (own knowledge: pGEX vectors encode N-terminal GST); made in house; host or cells: E. coli BL21 DE3 Codon Plus RP
T3 sequence (Q99714 1-261): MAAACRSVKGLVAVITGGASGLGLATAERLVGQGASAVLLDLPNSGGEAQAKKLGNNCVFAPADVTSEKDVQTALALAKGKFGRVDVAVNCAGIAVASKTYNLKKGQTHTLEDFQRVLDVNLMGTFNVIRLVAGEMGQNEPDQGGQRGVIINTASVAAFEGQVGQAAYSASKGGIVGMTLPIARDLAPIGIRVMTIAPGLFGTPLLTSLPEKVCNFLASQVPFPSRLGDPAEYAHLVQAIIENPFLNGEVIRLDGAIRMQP
Source text: as §1, §2, §3, §4, §5, §6

HSD17B14 = molecular target: T4, HSD17B14 (Homo sapiens, UniProt Q9BPX1, T205S); experiment: HSD17B14 (S205 variant) inhibition assay (oestradiol to estrone)
T4 construct: His6 (own knowledge: the SGC p11 vector encodes an N-terminal His tag with TEV site); made in house; host or cells: E. coli BL21 DE3
T4 sequence (Q9BPX1 1-270 T205S): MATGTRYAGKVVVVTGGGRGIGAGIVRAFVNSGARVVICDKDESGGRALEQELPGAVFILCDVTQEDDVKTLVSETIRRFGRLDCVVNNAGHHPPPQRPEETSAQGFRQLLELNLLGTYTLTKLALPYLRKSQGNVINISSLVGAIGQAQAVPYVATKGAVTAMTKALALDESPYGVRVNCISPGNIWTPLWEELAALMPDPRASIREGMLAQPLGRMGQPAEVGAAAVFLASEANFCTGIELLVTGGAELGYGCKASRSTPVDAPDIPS
Source text: as §1, §2, §3, §4, §5, §6

| Inhibition of AKR1C1 at 10 µM in % (AKR1C1) | Inhibition of HSD17B3 at 10 µM in % (HSD17B3) [%] | Inhibition of HSD17B10 at 10 µM in % (HSD17B10) [%] | Inhibition of HSD17B14 at 10 µM in % (HSD17B14) [%] | inhibition at 10 µM (AKR1C1) [%] | inhibition at 10 µM (HSD17B3) [%] | inhibition at 10 µM (HSD17B10) [%] | inhibition at 10 µM (HSD17B14) [%] | SMILES |
| --- | --- | --- | --- | --- | --- | --- | --- | --- |
| 96.5% | 24.8 ± 4.8 | -0.5 ± 6.5 | 24.9 ± 8.1 | – | – | – | – | COc1ccc(/C=C/C(=O)c2c(O)cc(O)cc2OC)cc1 [Compound 18] |
| 90.2 ± 0.8% and > 75% | 52.7 ± 6.7 | 8.0 ± 6.5 | -8.0 ± 2.3 | – | – | – | – | Cc1ccc(/C=C/C(=O)c2c(O)cc(O)cc2O)cc1 [Compound 21] |

The next lines start with the molecule.

| SMILES | Inhibition of AKR1C1 at 10 µM in % (AKR1C1) | Inhibition of HSD17B3 at 10 µM in % (HSD17B3) [%] | Inhibition of HSD17B10 at 10 µM in % (HSD17B10) [%] | Inhibition of HSD17B14 at 10 µM in % (HSD17B14) [%] | inhibition at 10 µM (AKR1C1) [%] | inhibition at 10 µM (HSD17B3) [%] | inhibition at 10 µM (HSD17B10) [%] | inhibition at 10 µM (HSD17B14) [%] |
| --- | --- | --- | --- | --- | --- | --- | --- | --- |
| COc1ccc(/C=C/C(=O)c2c(O)cc(O)cc2O)cc1 [Compound 19] | > 75% | 41.8 ± 3.3 | 2.2 ± 2.6 | 1.8 ± 7.7 | – | – | – | – |
| Cc1cccc(/C=C/C(=O)c2c(O)cc(O)cc2O)c1 [Compound 20] | 86.9 ± 1.1% and > 75% | 55.9 ± 4.1 | -2.5 ± 0.7 | 18.5 ± 9.3 | – | – | – | – |
| O=C(/C=C/c1ccc(Cl)cc1Cl)c1c(O)cc(O)cc1O [Compound 23, 2,4-dichloro-2′,4′,6′-trihydroxychalcone] | – | – | – | – | 97 ± 0.5 | 68.6 | 5.2 ± 3.8 | 13.9 ± 2.7 |
| COc1cc(O)cc(O)c1C(=O)/C=C/c1ccc(Cl)cc1Cl [Compound 25] | 87.9% | 20.9 ± 8.0 | -0.5 ± 7.3 | -3.2 ± 6.3 | – | – | – | – |
